The values that follow come from patent US12448389B2, “BRM targeting compounds and associated methods of use” (Prelude Therapeutics Incorporated, priority 2020, dated 2025).

The target in one test is T1, SMARCA2-HiBiT (Homo sapiens, UniProt P51531).
T1 construct: SMARCA2-HiBiT knock-in Hela monoclonal cell (CS302366); host or cells: HeLa monoclonal knock-in line (CRISPR HiBiT knock-in at the endogenous locus, heterozygous)
Put plainly: SMARCA2 HiBiT degradation assay in HeLa cells. The following applies: 18 hours incubation; for DC50: read-out: HeLa_HiBit-SM2 DC50; for Dmax: HeLa, read-out: HeLa-HiBit-SM2 Dmax (%). Format: cell-based. The gist of the method: (§1)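 HeLa monoclonal lines with heterozygous HiBiT knock-in were seeded at 2500 cells/well in EMEM with 10% FBS and treated with compound for 18 h at 37 °C. Remaining tagged protein was measured by Nano-Glo HiBiT lytic luminescence after 30–60 min at RT, and values came from curve fitting.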
On the technique in general: The HiBiT peptide binds its large partner to form an active luciferase.

The target in the next test is T2, SMARCA4-HiBiT (Homo sapiens, UniProt P51532).
T2 construct: SMARCA4-HiBiT knock-in Hela monoclonal cell (CS3023226); host or cells: HeLa monoclonal knock-in line (CRISPR HiBiT knock-in at the endogenous locus, heterozygous)
T2 sequence (P51532 whole entry): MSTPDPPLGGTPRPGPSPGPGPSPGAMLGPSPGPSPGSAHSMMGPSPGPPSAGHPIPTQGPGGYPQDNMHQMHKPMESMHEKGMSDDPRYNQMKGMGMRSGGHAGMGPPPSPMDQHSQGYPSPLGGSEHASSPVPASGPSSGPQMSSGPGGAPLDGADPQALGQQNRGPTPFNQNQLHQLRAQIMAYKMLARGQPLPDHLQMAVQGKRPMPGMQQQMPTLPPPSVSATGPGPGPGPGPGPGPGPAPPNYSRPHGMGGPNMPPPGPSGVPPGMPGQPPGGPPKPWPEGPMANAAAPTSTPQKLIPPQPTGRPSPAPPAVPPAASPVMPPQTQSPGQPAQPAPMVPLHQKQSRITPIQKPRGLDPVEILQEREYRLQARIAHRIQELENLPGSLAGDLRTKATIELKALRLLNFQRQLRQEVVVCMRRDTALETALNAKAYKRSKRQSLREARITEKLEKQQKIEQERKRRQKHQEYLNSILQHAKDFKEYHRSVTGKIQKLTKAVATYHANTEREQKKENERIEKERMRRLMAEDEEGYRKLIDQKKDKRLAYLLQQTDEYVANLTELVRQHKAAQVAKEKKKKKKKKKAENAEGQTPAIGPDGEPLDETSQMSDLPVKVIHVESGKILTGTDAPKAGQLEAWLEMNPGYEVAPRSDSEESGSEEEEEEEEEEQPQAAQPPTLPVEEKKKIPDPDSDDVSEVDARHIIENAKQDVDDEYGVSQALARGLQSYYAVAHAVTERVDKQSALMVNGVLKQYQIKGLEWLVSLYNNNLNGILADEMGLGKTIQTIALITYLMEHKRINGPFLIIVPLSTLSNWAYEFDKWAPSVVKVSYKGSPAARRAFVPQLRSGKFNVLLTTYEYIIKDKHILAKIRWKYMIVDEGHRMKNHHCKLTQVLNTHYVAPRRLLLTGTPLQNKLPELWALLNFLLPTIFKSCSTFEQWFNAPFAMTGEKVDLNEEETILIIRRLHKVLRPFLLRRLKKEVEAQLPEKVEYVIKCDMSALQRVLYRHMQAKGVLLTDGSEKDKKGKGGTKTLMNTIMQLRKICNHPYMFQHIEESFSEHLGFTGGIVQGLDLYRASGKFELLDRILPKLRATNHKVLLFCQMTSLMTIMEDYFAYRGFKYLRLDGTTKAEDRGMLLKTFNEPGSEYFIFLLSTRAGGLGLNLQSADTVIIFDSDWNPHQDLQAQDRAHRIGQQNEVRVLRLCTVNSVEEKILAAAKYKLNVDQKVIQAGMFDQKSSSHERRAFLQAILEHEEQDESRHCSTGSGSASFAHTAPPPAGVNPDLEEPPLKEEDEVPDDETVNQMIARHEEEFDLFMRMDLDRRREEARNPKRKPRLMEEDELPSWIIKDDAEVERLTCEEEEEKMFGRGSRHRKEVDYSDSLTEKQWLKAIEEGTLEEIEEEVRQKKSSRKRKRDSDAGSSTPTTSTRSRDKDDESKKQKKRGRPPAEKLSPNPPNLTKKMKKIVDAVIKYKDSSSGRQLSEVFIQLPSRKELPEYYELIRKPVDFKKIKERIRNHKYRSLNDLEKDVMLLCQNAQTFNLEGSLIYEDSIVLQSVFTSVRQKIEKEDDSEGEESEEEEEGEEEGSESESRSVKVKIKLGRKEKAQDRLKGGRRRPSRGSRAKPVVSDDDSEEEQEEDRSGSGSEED
Put plainly: SMARCA4 HiBiT degradation assay in HeLa cells. The format is cell-based. The following applies: 18 hours incubation; for DC50: read-out: HeLa-HiBit-SM4 DC50; for Dmax: HeLa, read-out: HeLa-HiBit-SM4 Dmax (%). The method in brief: as §1

Where only a bound is given, the exact number is not on record here.

T1 sequence (P51531 whole entry): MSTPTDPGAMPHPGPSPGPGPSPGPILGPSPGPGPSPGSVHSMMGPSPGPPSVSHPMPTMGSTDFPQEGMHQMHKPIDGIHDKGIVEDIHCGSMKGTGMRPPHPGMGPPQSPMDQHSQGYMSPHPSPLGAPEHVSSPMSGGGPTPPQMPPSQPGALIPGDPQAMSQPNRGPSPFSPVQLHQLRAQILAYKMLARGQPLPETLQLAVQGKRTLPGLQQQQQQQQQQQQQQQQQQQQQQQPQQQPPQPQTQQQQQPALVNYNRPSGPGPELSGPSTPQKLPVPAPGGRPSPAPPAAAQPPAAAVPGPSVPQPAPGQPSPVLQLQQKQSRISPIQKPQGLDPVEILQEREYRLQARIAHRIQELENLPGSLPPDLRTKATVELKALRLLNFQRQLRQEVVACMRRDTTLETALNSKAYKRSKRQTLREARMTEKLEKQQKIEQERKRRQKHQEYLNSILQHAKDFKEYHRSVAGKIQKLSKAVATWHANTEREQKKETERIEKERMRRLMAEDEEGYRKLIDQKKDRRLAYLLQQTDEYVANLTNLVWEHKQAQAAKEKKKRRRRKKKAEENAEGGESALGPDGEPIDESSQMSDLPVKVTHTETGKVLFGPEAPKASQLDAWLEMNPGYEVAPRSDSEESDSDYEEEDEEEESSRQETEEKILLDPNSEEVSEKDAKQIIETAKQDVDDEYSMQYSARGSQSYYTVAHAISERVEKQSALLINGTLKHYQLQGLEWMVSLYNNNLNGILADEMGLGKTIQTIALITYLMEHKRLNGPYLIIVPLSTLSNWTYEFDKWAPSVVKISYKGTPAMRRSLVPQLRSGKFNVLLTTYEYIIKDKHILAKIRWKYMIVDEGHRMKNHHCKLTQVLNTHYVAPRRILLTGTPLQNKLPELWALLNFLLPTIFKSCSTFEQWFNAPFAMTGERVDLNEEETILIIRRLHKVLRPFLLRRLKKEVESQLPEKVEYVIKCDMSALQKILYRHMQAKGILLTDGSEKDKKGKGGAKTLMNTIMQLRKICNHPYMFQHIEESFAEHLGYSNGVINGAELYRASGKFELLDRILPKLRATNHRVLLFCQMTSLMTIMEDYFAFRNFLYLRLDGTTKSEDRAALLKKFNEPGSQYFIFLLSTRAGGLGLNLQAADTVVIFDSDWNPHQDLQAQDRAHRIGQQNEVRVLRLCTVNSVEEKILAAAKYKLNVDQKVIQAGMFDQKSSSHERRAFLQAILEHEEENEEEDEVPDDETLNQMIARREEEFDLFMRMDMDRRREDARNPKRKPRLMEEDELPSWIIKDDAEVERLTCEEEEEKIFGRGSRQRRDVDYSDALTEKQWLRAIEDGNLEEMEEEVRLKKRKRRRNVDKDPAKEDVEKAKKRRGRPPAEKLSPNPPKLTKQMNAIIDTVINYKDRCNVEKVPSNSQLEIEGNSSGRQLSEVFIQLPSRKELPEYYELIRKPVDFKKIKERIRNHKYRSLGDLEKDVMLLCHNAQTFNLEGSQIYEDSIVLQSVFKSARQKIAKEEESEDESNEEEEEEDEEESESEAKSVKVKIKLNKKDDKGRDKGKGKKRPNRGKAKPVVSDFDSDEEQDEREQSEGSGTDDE

On to `O=C1CCC(N2C(=O)c3cccc(N4CCC(CN5CCC(CN6CCN7c8cc(-c9ccccc9O)nnc8NC[C@H]7C6)CC5)CC4)c3C2=O)C(=O)N1` (stereo partly drawn) [Example 127, 2-(2,6-dioxopiperidin-3-yl)-4-(4-((4-(((S)-2-(2-hydroxyphenyl)-5,6,6a,7,9,10-hexahydro-8H-pyrazino[1′,2′:4,5]pyrazino[2,3-c]pyridazin-8-yl)methyl)piperidin-1-yl)methyl)piperidin-1-yl) isoindoline-1,3-dione], for which, at SMARCA2-HiBiT, the DC50 (in general, the concentration giving 50% degradation) is under 10 nM and the Dmax (as a rule, the largest share of the target that was removed) was over 85%. At SMARCA4-HiBiT, the DC50 is under 10 nM and the Dmax is 75 to 85%.

For the compound `CCC1Nc2nnc(-c3ccccc3O)cc2N2CCN(CC3CCN(CC4CCN(c5ccc6c(c5)C(=O)N(C5CCC(=O)NC5=O)C6=O)CC4)CC3)CC12` (centres unmarked) [Example 128, 2-(2,6-dioxopiperidin-3-yl)-5-(4-((4-((6-ethyl-2-(2-hydroxyphenyl)-5,6,6a,7,9,10-hexahydro-8H-pyrazino[1′,2′:4,5]pyrazino[2,3-c]pyridazin-8-yl)methyl)piperidin-1-yl)methyl)piperidin-1-yl)isoindoline-1,3-dione], on SMARCA2-HiBiT, the DC50 was under 10 nM and the Dmax was over 85%. Moreover, on SMARCA4-HiBiT, the DC50 is under 10 nM and the Dmax was over 85%.

Consider `O=C1CCC(N2C(=O)c3ccc(N4CCC(CN5CCC(CN6CCN7c8cc(-c9ccccc9O)nnc8NC[C@H]7C6)CC5)CC4)cc3C2=O)C(=O)N1COP(=O)(O)O` (stereo partly drawn) [Example 129, (3-(5-(4-((4-(((S)-2-(2-hydroxyphenyl)-5,6,6a,7,9,10-hexahydro-8H-pyrazino[1′,2′:4,5]pyrazino[2,3-c]pyridazin-8-yl)methyl)piperidin-1-yl)methyl)piperidin-1-yl)-1,3-dioxoisoindolin-2-yl)-2,6-dioxopiperidin-1-yl)methyl) dihydrogen phosphate], for which the DC50 at SMARCA2-HiBiT and at SMARCA4-HiBiT was under 10 nM throughout. Moreover, the Dmax on SMARCA2-HiBiT and on SMARCA4-HiBiT was over 85% each time.

For `O=C1CCC(N2C(=O)c3ccc(N4CCC(CN5CCC(CN6CCN7c8cc(-c9ccccc9O)nnc8NC[C@H]7C6)CC5)CC4)cc3C2=O)C(=O)N1COC(=O)C1(O)CC1` (stereo partly drawn) [Example 130, (3-(5-(4-((4-(((S)-2-(2-hydroxyphenyl)-5,6,6a,7,9,10-hexahydro-8H-pyrazino[1′,2′:4,5]pyrazino[2,3-c]pyridazin-8-yl)methyl)piperidin-1-yl)methyl)piperidin-1-yl)-1,3-dioxoisoindolin-2-yl)-2,6-dioxopiperidin-1-yl)methyl-1-hydroxycyclopropane-1-carboxylate], at SMARCA2-HiBiT, the DC50 is under 10 nM and the Dmax was over 85%. Moreover, at SMARCA4-HiBiT, the DC50 was under 10 nM and the Dmax is over 85%.

Turning to `NC1(C(=O)OCN2C(=O)CCC(N3C(=O)c4ccc(N5CCC(CN6CCC(CN7CCN8c9cc(-c%10ccccc%10O)nnc9NC[C@H]8C7)CC6)CC5)cc4C3=O)C2=O)CC1` (stereo partly drawn) [Example 131, (3-(5-(4-((4-(((S)-2-(2-hydroxyphenyl)-5,6,6a,7,9,10-hexahydro-8H-pyrazino[1′,2′:4,5]pyrazino[2,3-c]pyridazin-8-yl)methyl)piperidin-1-yl)methyl)piperidin-1-yl)-1,3-dioxoisoindolin-2-yl)-2,6-dioxopiperidin-1-yl)methyl 1-aminocyclopropane-1-carboxylate], the half-maximal degradation concentration (DC50) on SMARCA2-HiBiT and at SMARCA4-HiBiT was under 10 nM in each case. The Dmax on SMARCA2-HiBiT and on SMARCA4-HiBiT was over 85% throughout.

`O=C1CCC(N2C(=O)c3ccc(N4CCC(CN5CC6COCC(C5)C6CN5CCN6c7cc(-c8ccccc8O)nnc7NC[C@H]6C5)CC4)cc3C2=O)C(=O)N1` (stereo partly drawn) [Example 132, 2-(2,6-dioxopiperidin-3-yl)-5-(4-((9-(((S)-2-(2-hydroxyphenyl)-5,6,6a,7,9,10-hexahydro-8H-pyrazino[1′,2′:4,5]pyrazino[2,3-c]pyridazin-8-yl)methyl)-3-oxa-7-azabicyclo[3.3.1]nonan-7-yl)methyl)piperidin-1-yl)isoindoline-1,3-dione]: at SMARCA2-HiBiT, the DC50 is under 10 nM and the Dmax is over 85%. On SMARCA4-HiBiT, the DC50 was under 10 nM and the Dmax was 75 to 85%.

Consider `O=C1CCC(N2C(=O)c3ccc(N4CCC(CN5C6COCC5CC(CN5CCN7c8cc(-c9ccccc9O)nnc8NC[C@H]7C5)C6)CC4)cc3C2=O)C(=O)N1` (stereo partly drawn) [Example 133, 2-(2,6-dioxopiperidin-3-yl)-5-(4-((7-(((S)-2-(2-hydroxyphenyl)-5,6,6a,7,9,10-hexahydro-8H-pyrazino[1′,2′:4,5]pyrazino[2,3-c]pyridazin-8-yl)methyl)-3-oxa-9-azabicyclo[3.3.1]nonan-9-yl)methyl)piperidin-1-yl)isoindoline-1,3-dione], for which, on SMARCA2-HiBiT, the DC50 was under 10 nM and the Dmax fell in the range of 50 to 75%. Also, at SMARCA4-HiBiT, the DC50 is under 10 nM and the Dmax was 50 to 75%.

As to `O=C1CCC(N2C(=O)c3ccc(N4CCC(CNC56CC(CN7CCN8c9cc(-c%10ccccc%10O)nnc9NC[C@H]8C7)(C5)C6)CC4)cc3C2=O)C(=O)N1` (stereo partly drawn) [Example 134, 2-(2,6-dioxopiperidin-3-yl)-5-(4-(((3-(((S)-2-(2-hydroxyphenyl)-5,6,6a,7,9,10-hexahydro-8H-pyrazino[1′,2′:4,5]pyrazino[2,3-c]pyridazin-8-yl)methyl)bicyclo[1.1.1]pentan-1-yl)amino)methyl)piperidin-1-yl)isoindoline-1,3-dione], on SMARCA2-HiBiT, the DC50 was under 10 nM and the Dmax was in the range of 75 to 85%. For the same compound, at SMARCA4-HiBiT, the DC50 was under 10 nM and the Dmax is 50 to 75%.

In the case of `O=C1CCC(N2C(=O)c3ccc(N4CCC(NC56CC(CN7CCN8c9cc(-c%10ccccc%10O)nnc9NC[C@H]8C7)(C5)C6)CC4)cc3C2=O)C(=O)N1` (stereo partly drawn) [Example 135, 2-(2,6-dioxopiperidin-3-yl)-5-(4-((3-(((S)-2-(2-hydroxyphenyl)-5,6,6a,7,9,10-hexahydro-8H-pyrazino[1′,2′:4,5]pyrazino[2,3-c]pyridazin-8-yl)methyl)bicyclo[1.1.1]pentan-1-yl)amino)piperidin-1-yl)isoindoline-1,3-dione], at SMARCA2-HiBiT, the DC50 was under 10 nM and the Dmax was 75 to 85%. For the same compound, on SMARCA4-HiBiT, the DC50 is under 10 nM and the Dmax lay in the range of 50 to 75%.

Take `O=C1CCC(N2C(=O)c3ccc(N4CCC(CN5CC6CC5CC6CN5CCN6c7cc(-c8ccccc8O)nnc7NC[C@H]6C5)CC4)cc3C2=O)C(=O)N1` (stereo partly drawn) [Example 136, 2-(2,6-dioxopiperidin-3-yl)-5-(4-((5-(((S)-2-(2-hydroxyphenyl)-5,6,6a,7,9,10-hexahydro-8H-pyrazino[1′,2′:4,5]pyrazino[2,3-c]pyridazin-8-yl)methyl)-2-azabicyclo[2.2.1]heptan-2-yl)methyl)piperidin-1-yl) isoindoline-1,3-dione]: the DC50 at SMARCA2-HiBiT and at SMARCA4-HiBiT was under 10 nM in each case. The Dmax at SMARCA2-HiBiT and on SMARCA4-HiBiT was over 85% in each case.

In the case of `O=C1CCC(N2C(=O)c3ccc(N4CCC(CN5CCC(S(=O)(=O)N6CCN7c8cc(-c9ccccc9O)nnc8NC[C@H]7C6)CC5)CC4)cc3C2=O)C(=O)N1` (stereo partly drawn) [Example 137, 2-(2,6-dioxopiperidin-3-yl)-5-(4-((4-(((S)-2-(2-hydroxyphenyl)-5,6,6a,7,9,10-hexahydro-8H-pyrazino[1′,2′:4,5]pyrazino[2,3-c]pyridazin-8-yl)sulfonyl)piperidin-1-yl)methyl)piperidin-1-yl)isoindoline-1,3-dione], on SMARCA2-HiBiT, the DC50 is under 10 nM and the greatest degradation seen (Dmax) was in the range of 50 to 75%. At SMARCA4-HiBiT, the DC50 is 10 to 100 nM and the maximal degradation (Dmax) was in the range of 50 to 75%.
